A short description of this data set: recombinant UMI read abundance after kanamycin selection (control-corrected) (log10(CPM+1)); higher = more efficient recombination; extreme values may be limits of the assay; sequences stand for … in AGTGCAGAGAAAATCGGCCAGTTTTCTCTGCCTGCAGTCCGCATGCCGTGGGACCCCTTGGGTTCTAACCTGTTGCCTAGATTTATGCAGCGGACTGCCTTTCTCCCAAAGTGATAAACCGG…AGGTTGGTTTCACT; site = the 11-nt donor. A digest of the protocol: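 In a pooled Escherichia coli screen for the IS621 bridge recombinase, donor and donor-binding-loop pairs were each placed with a 12-nt UMI on a plasmid bearing a promoterless kanamycin gene. This library was co-electroporated with a target plasmid encoding a fixed target and T7-inducible recombinase, and cells were plated either on IPTG (0.07 mM) plus kanamycin or without selection, in two replicates each. Recombinant UMIs were PCR-amplified across the donor–target junction and sequenced, and counts were converted to CPM, averaged over replicates, scaled by control-derived factors and reported as log10(CPM+1).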

Consider 68 sequences from the supplement of paper PMC11208160.
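Also: IS621 bridge recombinase in Escherichia coli cells against a fixed T5 target plasmid.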

For “CTCGCTACATGGACCGGTTTTCCCGGTAATCCGTATTTGAT (site CTCGCTACTAT)”, the “recombinant UMI read abundance (log10)” value worked out at 1.7.

Regarding “CTCGGATCATGGACCGGTTTTCCCGGTAATCCGTATTTGGA (site CTCGGATCTTC)”, the “recombinant UMI read abundance (log10)” value is 1.56.

On to “CTCGGGCCATGGACCGGTTTTCCCGGTAATCCGTATTTGAG (site CTCGGGCCTCT)”, for which the “recombinant UMI read abundance (log10)” value was determined as 0.

For “CTCGGTCCATGGACCGGTTTTCCCGGTAATCCGTATTTGCA (site CACGGTCCTTG)”, the “recombinant UMI read abundance (log10)” value was 0.779.

Regarding “CTCGGTCCATGGACCGGTTTTCCCGGTAATCCGTATTTGCA (site CCCGGTCCTTG)”, the “recombinant UMI read abundance (log10)” value is 1.6.

On to “CTCGGTCCATGGACCGGTTTTCCCGGTAATCCGTATTTGCA (site CGCGGTCCTTG)”, for which the “recombinant UMI read abundance (log10)” value turned out to be 0.00731.

As for “CTCGGTCCATGGACCGGTTTTCCCGGTAATCCGTATTTGCA (site CTCGGTCCTTG)”, the “recombinant UMI read abundance (log10)” value came to 0.517.

With “CTCGTCGCATGGACCGGTTTTCCCGGTAATCCGTATTTGGG (site CTCGTCGCTCC)”, the “recombinant UMI read abundance (log10)” value turned out to be 0.0128.

With “CTCTACACATGGACCGGTTTTCCCGGTAATCCGTATTTGCT (site ATCTACACTAG)”, the “recombinant UMI read abundance (log10)” value was determined as 0.294.

Regarding “CTCTACACATGGACCGGTTTTCCCGGTAATCCGTATTTGCT (site CACTACACTAG)”, the “recombinant UMI read abundance (log10)” value turned out to be 1.63.

Regarding “CTCTACACATGGACCGGTTTTCCCGGTAATCCGTATTTGCT (site CCCTACACTAG)”, the “recombinant UMI read abundance (log10)” value was found to be 2.09.

For the sequence “CTCTACACATGGACCGGTTTTCCCGGTAATCCGTATTTGCT (site CGCTACACTAG)”, the “recombinant UMI read abundance (log10)” value worked out at 0.891.

Take “CTCTACACATGGACCGGTTTTCCCGGTAATCCGTATTTGCT (site CTATACACTAG)”: the “recombinant UMI read abundance (log10)” value was determined as 0.775.

“CTCTACACATGGACCGGTTTTCCCGGTAATCCGTATTTGCT (site CTCAACACTAG)”: the “recombinant UMI read abundance (log10)” value is 0.

Consider “CTCTACACATGGACCGGTTTTCCCGGTAATCCGTATTTGCT (site CTCCACACTAG)”, for which the “recombinant UMI read abundance (log10)” value was found to be 2.02.

On to “CTCTACACATGGACCGGTTTTCCCGGTAATCCGTATTTGCT (site CTCGACACTAG)”, for which the “recombinant UMI read abundance (log10)” value came out at 0.288.

As to “CTCTACACATGGACCGGTTTTCCCGGTAATCCGTATTTGCT (site CTCTAAACTAG)”, the “recombinant UMI read abundance (log10)” value stood at 0.

In the case of “CTCTACACATGGACCGGTTTTCCCGGTAATCCGTATTTGCT (site CTCTACACTAA)”, the “recombinant UMI read abundance (log10)” value is 0.362.

Regarding “CTCTACACATGGACCGGTTTTCCCGGTAATCCGTATTTGCT (site CTCTACACTAC)”, the “recombinant UMI read abundance (log10)” value amounted to 0.0172.

With “CTCTACACATGGACCGGTTTTCCCGGTAATCCGTATTTGCT (site CTCTACACTAG)”, the “recombinant UMI read abundance (log10)” value came out at 2.41.

As to “CTCTACACATGGACCGGTTTTCCCGGTAATCCGTATTTGCT (site CTCTACACTAT)”, the “recombinant UMI read abundance (log10)” value stood at 0.916.

Consider “CTCTACACATGGACCGGTTTTCCCGGTAATCCGTATTTGCT (site CTCTACACTCG)”, for which the “recombinant UMI read abundance (log10)” value is 0.238.

Consider “CTCTACACATGGACCGGTTTTCCCGGTAATCCGTATTTGCT (site CTCTACACTGG)”, for which the “recombinant UMI read abundance (log10)” value came out at 1.37.

As for “CTCTACACATGGACCGGTTTTCCCGGTAATCCGTATTTGCT (site CTCTACACTTG)”, the “recombinant UMI read abundance (log10)” value is 1.15.

Take “CTCTACACATGGACCGGTTTTCCCGGTAATCCGTATTTGCT (site CTCTACCCTAG)”: the “recombinant UMI read abundance (log10)” value was 0.

Regarding “CTCTACACATGGACCGGTTTTCCCGGTAATCCGTATTTGCT (site CTCTACGCTAG)”, the “recombinant UMI read abundance (log10)” value was determined as 0.84.

For the sequence “CTCTACACATGGACCGGTTTTCCCGGTAATCCGTATTTGCT (site CTCTACTCTAG)”, the “recombinant UMI read abundance (log10)” value is 0.78.

For “CTCTACACATGGACCGGTTTTCCCGGTAATCCGTATTTGCT (site CTCTAGACTAG)”, the “recombinant UMI read abundance (log10)” value was 0.0131.

With “CTCTACACATGGACCGGTTTTCCCGGTAATCCGTATTTGCT (site CTCTATACTAG)”, the “recombinant UMI read abundance (log10)” value came out at 0.00765.

With “CTCTACACATGGACCGGTTTTCCCGGTAATCCGTATTTGCT (site CTCTCCACTAG)”, the “recombinant UMI read abundance (log10)” value is 0.

“CTCTACACATGGACCGGTTTTCCCGGTAATCCGTATTTGCT (site CTCTGCACTAG)”: the “recombinant UMI read abundance (log10)” value is 0.00734.

For the sequence “CTCTACACATGGACCGGTTTTCCCGGTAATCCGTATTTGCT (site CTCTTCACTAG)”, the “recombinant UMI read abundance (log10)” value worked out at 0.548.

In the case of “CTCTACACATGGACCGGTTTTCCCGGTAATCCGTATTTGCT (site CTGTACACTAG)”, the “recombinant UMI read abundance (log10)” value was found to be 0.0999.

For “CTCTACACATGGACCGGTTTTCCCGGTAATCCGTATTTGCT (site CTTTACACTAG)”, the “recombinant UMI read abundance (log10)” value was determined as 0.644.

With “CTCTACACATGGACCGGTTTTCCCGGTAATCCGTATTTGCT (site GTCTACACTAG)”, the “recombinant UMI read abundance (log10)” value is 0.232.

On to “CTCTACACATGGACCGGTTTTCCCGGTAATCCGTATTTGCT (site TTCTACACTAG)”, for which the “recombinant UMI read abundance (log10)” value was determined as 0.107.

For the sequence “CTCTACACATGGACCGGTTTTCCCGGTAATCCGTATTTGTT (site CTCTACACTAA)”, the “recombinant UMI read abundance (log10)” value is 0.93.

Take “CTCTACACATGGACCGGTTTTCCCGGTAATCCGTATTTGTT (site CTCTACACTAC)”: the “recombinant UMI read abundance (log10)” value stood at 0.0026.

As to “CTCTACACATGGACCGGTTTTCCCGGTAATCCGTATTTGTT (site CTCTACACTAG)”, the “recombinant UMI read abundance (log10)” value worked out at 1.45.

In the case of “CTCTACACATGGACCGGTTTTCCCGGTAATCCGTATTTGTT (site CTCTACACTAT)”, the “recombinant UMI read abundance (log10)” value came to 0.616.

With “CTCTACTCATGGACCGGTTTTCCCGGTAATCCGTATTTGCT (site CTCTACACTAG)”, the “recombinant UMI read abundance (log10)” value worked out at 0.869.

For “CTCTACTCATGGACCGGTTTTCCCGGTAATCCGTATTTGCT (site CTCTACCCTAG)”, the “recombinant UMI read abundance (log10)” value worked out at 1.17.

In the case of “CTCTACTCATGGACCGGTTTTCCCGGTAATCCGTATTTGCT (site CTCTACGCTAG)”, the “recombinant UMI read abundance (log10)” value was 0.00255.

On to “CTCTACTCATGGACCGGTTTTCCCGGTAATCCGTATTTGCT (site CTCTACTCTAG)”, for which the “recombinant UMI read abundance (log10)” value is 2.5.

Regarding “CTCTAGCCATGGACCGGTTTTCCCGGTAATCCGTATTTGCC (site CACTAGCCTGG)”, the “recombinant UMI read abundance (log10)” value was found to be 0.69.

On to “CTCTAGCCATGGACCGGTTTTCCCGGTAATCCGTATTTGCC (site CCCTAGCCTGG)”, for which the “recombinant UMI read abundance (log10)” value stood at 0.

Turning to “CTCTAGCCATGGACCGGTTTTCCCGGTAATCCGTATTTGCC (site CGCTAGCCTGG)”, the “recombinant UMI read abundance (log10)” value was determined as 0.

For the sequence “CTCTAGCCATGGACCGGTTTTCCCGGTAATCCGTATTTGCC (site CTCTAGCCTGG)”, the “recombinant UMI read abundance (log10)” value was determined as 0.

Turning to “CTCTATACATGGACCGGTTTTCCCGGTAATCCGTATTTGAC (site ATCTATACTGT)”, the “recombinant UMI read abundance (log10)” value was found to be 0.

Regarding “CTCTATACATGGACCGGTTTTCCCGGTAATCCGTATTTGAC (site CTCTATACTGT)”, the “recombinant UMI read abundance (log10)” value is 2.07.

As to “CTCTATACATGGACCGGTTTTCCCGGTAATCCGTATTTGAC (site GTCTATACTGT)”, the “recombinant UMI read abundance (log10)” value was 0.00602.

Turning to “CTCTATACATGGACCGGTTTTCCCGGTAATCCGTATTTGAC (site TTCTATACTGT)”, the “recombinant UMI read abundance (log10)” value came out at 0.

Consider “CTCTCATCATGGACCGGTTTTCCCGGTAATCCGTATTTGCT (site CGATCATCTAG)”, for which the “recombinant UMI read abundance (log10)” value came out at 0.

“CTCTCATCATGGACCGGTTTTCCCGGTAATCCGTATTTGCT (site CTCTCATCTAG)”: the “recombinant UMI read abundance (log10)” value is 2.05.

Turning to “CTCTCCACATGGACCGGTTTTCCCGGTAATCCGTATTTGTC (site CTCTCCACTGA)”, the “recombinant UMI read abundance (log10)” value was 2.77.

Regarding “CTCTCGACATGGACCGGTTTTCCCGGTAATCCGTATTTGAC (site CTCTCGACTGT)”, the “recombinant UMI read abundance (log10)” value worked out at 1.34.

In the case of “CTCTGCCCATGGACCGGTTTTCCCGGTAATCCGTATTTGAT (site CTCTGCCCTAT)”, the “recombinant UMI read abundance (log10)” value stood at 0.509.

As to “CTCTGGCCATGGACCGGTTTTCCCGGTAATCCGTATTTGCG (site CTCTGGCCTCG)”, the “recombinant UMI read abundance (log10)” value turned out to be 0.

Consider “CTCTTCTCATGGACCGGTTTTCCCGGTAATCCGTATTTGCT (site CTCTTCTCTAG)”, for which the “recombinant UMI read abundance (log10)” value amounted to 2.6.

With “CTGAATTCATGGACCGGTTTTCCCGGTAATCCGTATTTGCC (site CTGAATTCTGG)”, the “recombinant UMI read abundance (log10)” value came to 1.06.

With “CTGACATCATGGACCGGTTTTCCCGGTAATCCGTATTTGAG (site CTGACATCTCT)”, the “recombinant UMI read abundance (log10)” value is 1.86.

On to “CTGACGACATGGACCGGTTTTCCCGGTAATCCGTATTTGCA (site CTGACGACTTG)”, for which the “recombinant UMI read abundance (log10)” value was 1.71.

As to “CTGATACCATGGACCGGTTTTCCCGGTAATCCGTATTTGTA (site CTGATACCTTA)”, the “recombinant UMI read abundance (log10)” value was 0.00514.

With “CTGCAACCATGGACCGGTTTTCCCGGTAATCCGTATTTGCT (site CTGCAACCTAG)”, the “recombinant UMI read abundance (log10)” value amounted to 0.209.

Regarding “CTGCAACCATGGACCGGTTTTCCCGGTAATCCGTATTTGCT (site CTGCCACCTAG)”, the “recombinant UMI read abundance (log10)” value amounted to 0.0268.

Regarding “CTGCAACCATGGACCGGTTTTCCCGGTAATCCGTATTTGCT (site CTGCGACCTAG)”, the “recombinant UMI read abundance (log10)” value is 0.00379.

Consider “CTGCAACCATGGACCGGTTTTCCCGGTAATCCGTATTTGCT (site CTGCTACCTAG)”, for which the “recombinant UMI read abundance (log10)” value is 0.

Regarding “CTGCATCCATGGACCGGTTTTCCCGGTAATCCGTATTTGTT (site CGGAATCCTAA)”, the “recombinant UMI read abundance (log10)” value was determined as 0.00365.
